The supplement of paper PMC10307832

Columns and labels:
Test in all cases: relative viability (nuclei count vs DMSO), 5 days (fraction); higher = more cells survive
[1] = compound: CS(=O)(=O)c1ccc(-c2cnc(N)c(C(=O)Nc3ccccc3)n2)cc1 [VE-821] + C[C@@H](Oc1cc(-c2cnn(C3CCNCC3)c2)cnc1N)c1c(Cl)ccc(F)c1Cl [Crizotinib] (partner 1 µM)
Method in brief: (§1)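 Values are medians from duplicate plates. Each reflects relative viability, defined as the nuclei count of treated wells over that of vehicle wells. Lung cancer cell lines in 1536-well plates were pin-tool dosed one day after seeding with one drug alone or with a fixed anchor-drug dose plus five library-drug doses (not always all listed) in √10 steps, then fixed, stained and imaged at 4× after 5 days.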

[2] = compound: N#CC[C@H](C1CCCC1)n1cc(-c2ncnc3[nH]ccc23)cn1 [Ruxolitinib] + O=C(c1cc(Cc2n[nH]c(=O)c3ccccc23)ccc1F)N1CCN(C(=O)C2CC2)CC1 [Olaparib] (partner 8 µM)
Method in brief: as §1

[3] = compound: CS(=O)(=O)c1ccc(-c2cnc(N)c(C(=O)Nc3ccccc3)n2)cc1 [VE-821] + O=C(CCCCCCC(=O)Nc1ccccc1)NO [Vorinostat] (partner 1 µM)
Method in brief: as §1

[4] = compound: N#CC[C@H](C1CCCC1)n1cc(-c2ncnc3[nH]ccc23)cn1 [Ruxolitinib] + CC1(C)CCC(c2ccc(Cl)cc2)=C(CN2CCN(c3ccc(C(=O)NS(=O)(=O)c4ccc(N[C@H](CCN5CCOCC5)CSc5ccccc5)c(S(=O)(=O)C(F)(F)F)c4)cc3)CC2)C1 [Navitoclax] (partner 0.5 µM)
Method in brief: as §1

Cell Line | relative viability ([1]; first compound 0.08 µM) | relative viability ([1]; first compound 0.253 µM) | relative viability ([1]; first compound 0.8 µM) | relative viability ([1]; first compound 2.53 µM) | relative viability ([1]; first compound 8 µM) | relative viability ([2]; first compound 0.08 µM) | relative viability ([2]; first compound 0.253 µM) | relative viability ([2]; first compound 0.8 µM) | relative viability ([2]; first compound 2.53 µM) | relative viability ([2]; first compound 8 µM) | relative viability ([3]; first compound 0.08 µM) | relative viability ([3]; first compound 0.253 µM) | relative viability ([3]; first compound 0.8 µM) | relative viability ([3]; first compound 2.53 µM) | relative viability ([3]; first compound 8 µM) | relative viability ([4]; first compound 0.08 µM) | relative viability ([4]; first compound 0.253 µM) | relative viability ([4]; first compound 0.8 µM) | relative viability ([4]; first compound 2.53 µM) | relative viability ([4]; first compound 8 µM)
201T | 1.04 | 1.03 | 1.02 | 1.08 | 0.979 | 0.941 | 0.964 | 0.972 | 1.01 | 0.894 | 0.991 | 0.947 | 0.992 | 1.01 | 0.752 | 1.25 | 1.31 | 1.44 | 1.48 | 1.36
NCI-H2228 | 0.479 | 0.459 | 0.414 | 0.37 | 0.35 | 0.58 | 0.847 | 0.576 | 0.614 | 0.592 | 0.758 | 0.535 | 0.294 | 0.59 | 0.347 | 0.925 | 0.987 | 1.02 | 0.921 | 0.712
NCI-H1944 | 1.25 | 1.05 | 0.956 | 1.14 | 0.696 | 0.431 | 0.426 | 0.428 | 0.399 | 0.448 | 0.581 | 0.498 | 0.498 | 0.492 | 0.243 | 0.998 | 0.959 | 1.03 | 0.887 | 0.955
NCI-H441 | 1.21 | 0.791 | 0.866 | 0.927 | 0.723 | 0.508 | 0.54 | 0.502 | 0.472 | 0.484 | 0.833 | 0.765 | 0.951 | 0.921 | 0.435 | 0.817 | 0.501 | 0.659 | 0.45 | 0.623
NCI-H1437 | 1.1 | 0.906 | 0.864 | 1.01 | 0.823 | 0.669 | 0.622 | 0.624 | 0.549 | 0.463 | 0.847 | 0.797 | 0.901 | 0.777 | 0.611 | 1.12 | 1.14 | 1.14 | 1.05 | 0.884
EPLC-272H | 1.04 | 0.853 | 0.923 | 1.19 | 0.906 | 0.829 | 0.922 | 0.818 | 0.544 | 0.344 | 0.575 | 0.378 | 0.332 | 0.428 | 0.157 | 1.48 | 1.14 | 1.31 | 1.05 | 0.954
LOU-NH91 | 0.74 | 0.772 | 0.757 | 0.754 | 0.752 | 0.757 | 0.895 | 0.97 | 0.853 | 0.813 | 0.885 | 0.879 | 0.919 | 0.966 | 0.825 | 0.487 | 0.688 | 0.909 | 0.585 | 0.688
RERF-LC-KJ | 0.839 | 0.806 | 0.775 | 0.701 | 0.693 | 0.966 | 0.881 | 0.948 | 0.844 | 0.626 | 0.765 | 0.731 | 0.609 | 0.761 | 0.623 | 1.05 | 0.963 | 1.59 | 1.15 | 0.657
NCI-H1975 | 1.02 | 0.944 | 0.777 | 0.758 | 0.652 | 0.854 | 0.786 | 0.716 | 0.675 | 0.421 | 0.749 | 0.697 | 0.706 | 0.647 | 0.516 | 1.13 | 1.04 | 1.15 | 0.698 | 0.591
SK-MES-1 | 1.07 | 0.93 | 0.924 | 0.95 | 0.896 | 0.766 | 0.639 | 0.713 | 0.563 | 0.597 | 1.18 | 1.02 | 0.857 | 1.08 | 0.358 | 1.3 | 1.12 | 1.26 | 1.18 | 0.9
NCI-H2170 | 1.29 | 1.26 | 1.11 | 0.655 | 0.776 | 0.584 | 0.686 | 0.592 | 0.579 | 0.5 | 0.923 | 0.687 | 0.872 | 0.805 | 0.635 | 0.6 | 0.575 | 0.618 | 0.593 | 0.48
HOP-62 | 0.955 | 0.885 | 0.754 | 1.03 | 0.902 |  | 0.389 | 0.381 | 0.315 | 0.416 | 0.766 | 0.542 | 0.644 | 0.771 | 0.469 | 1.02 | 1.17 | 1.11 | 1 | 1.11
HCC-15 | 0.989 | 0.817 | 0.906 | 0.982 | 0.854 | 0.72 | 0.692 | 0.721 | 0.537 | 0.454 | 0.954 | 0.868 | 0.901 | 0.943 | 0.934 | 0.688 | 0.686 | 0.699 | 0.629 | 0.567
A-427 | 0.907 | 0.821 | 0.785 | 0.811 | 0.384 | 0.749 | 0.732 | 0.739 | 0.67 | 0.632 | 0.872 | 0.795 | 0.83 | 0.806 | 0.51 | 1 | 0.939 | 0.959 | 0.917 | 0.8
